Results: patent US20220187282A1, “CARDIOMYOCYTE PROLIFERATION” (The Council of the Queensland Institute of Medical Research, priority 2019, published 2022)
Read-outs that look alike come from different tables or passages of the source.

Columns and labels:
Assay type in all cases: biochemical
kinases [1] = target: kinases (Homo sapiens, UniProt O75116); conditions: ROCK2 FRET-Z-Lyte SP; Test Conc(μM):ATP Conc(μM) 1:50
kinases [2] = target: kinases (Homo sapiens, UniProt O75716); conditions: STK16 (PKL12) FRET-Lantha SP; Test Conc(μM) 1
kinases [3] = target: kinases (Homo sapiens, UniProt P06241)
Sequence of kinases (Homo sapiens, UniProt P06241) (P06241 whole entry): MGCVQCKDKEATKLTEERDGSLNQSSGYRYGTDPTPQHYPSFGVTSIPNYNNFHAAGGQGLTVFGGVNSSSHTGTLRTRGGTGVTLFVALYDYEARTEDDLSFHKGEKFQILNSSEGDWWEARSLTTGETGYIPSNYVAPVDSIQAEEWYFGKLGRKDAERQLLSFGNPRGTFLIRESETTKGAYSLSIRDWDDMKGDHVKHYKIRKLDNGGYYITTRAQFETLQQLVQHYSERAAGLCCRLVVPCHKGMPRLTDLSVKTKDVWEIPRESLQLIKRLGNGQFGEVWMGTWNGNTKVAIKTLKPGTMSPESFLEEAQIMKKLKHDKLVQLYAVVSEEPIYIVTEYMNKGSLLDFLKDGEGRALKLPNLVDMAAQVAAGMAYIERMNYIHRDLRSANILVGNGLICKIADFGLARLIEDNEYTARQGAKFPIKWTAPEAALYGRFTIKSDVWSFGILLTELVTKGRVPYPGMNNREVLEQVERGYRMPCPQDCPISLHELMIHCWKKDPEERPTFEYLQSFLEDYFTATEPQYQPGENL

kinases [4] = target: kinases (Homo sapiens, UniProt P07332); conditions: FES (FPS) FRET-Z-Lyte SP; Test Conc(μM):ATP Conc(μM) 1:25
kinases [5] = target: kinases (Homo sapiens, UniProt P16234); conditions: PDGFRA *Mn* FRET-Z-Lyte SP; Test Conc(μM):ATP Conc(μM) 1:10
kinases [6] = target: kinases (Homo sapiens, UniProt P16591); conditions: FER FRET-Z-Lyte SP; Test Conc(μM):ATP Conc(μM) 1:25
kinases [7] = target: kinases (Homo sapiens, UniProt P31749); conditions: AKT1 (PKB alpha) Z-Lyte SP; Test Conc(μM):ATP Conc(μM) 1:75
kinases [8] = target: kinases (Homo sapiens, UniProt P42338)
Sequence of kinases (Homo sapiens, UniProt P42338) (P42338 whole entry): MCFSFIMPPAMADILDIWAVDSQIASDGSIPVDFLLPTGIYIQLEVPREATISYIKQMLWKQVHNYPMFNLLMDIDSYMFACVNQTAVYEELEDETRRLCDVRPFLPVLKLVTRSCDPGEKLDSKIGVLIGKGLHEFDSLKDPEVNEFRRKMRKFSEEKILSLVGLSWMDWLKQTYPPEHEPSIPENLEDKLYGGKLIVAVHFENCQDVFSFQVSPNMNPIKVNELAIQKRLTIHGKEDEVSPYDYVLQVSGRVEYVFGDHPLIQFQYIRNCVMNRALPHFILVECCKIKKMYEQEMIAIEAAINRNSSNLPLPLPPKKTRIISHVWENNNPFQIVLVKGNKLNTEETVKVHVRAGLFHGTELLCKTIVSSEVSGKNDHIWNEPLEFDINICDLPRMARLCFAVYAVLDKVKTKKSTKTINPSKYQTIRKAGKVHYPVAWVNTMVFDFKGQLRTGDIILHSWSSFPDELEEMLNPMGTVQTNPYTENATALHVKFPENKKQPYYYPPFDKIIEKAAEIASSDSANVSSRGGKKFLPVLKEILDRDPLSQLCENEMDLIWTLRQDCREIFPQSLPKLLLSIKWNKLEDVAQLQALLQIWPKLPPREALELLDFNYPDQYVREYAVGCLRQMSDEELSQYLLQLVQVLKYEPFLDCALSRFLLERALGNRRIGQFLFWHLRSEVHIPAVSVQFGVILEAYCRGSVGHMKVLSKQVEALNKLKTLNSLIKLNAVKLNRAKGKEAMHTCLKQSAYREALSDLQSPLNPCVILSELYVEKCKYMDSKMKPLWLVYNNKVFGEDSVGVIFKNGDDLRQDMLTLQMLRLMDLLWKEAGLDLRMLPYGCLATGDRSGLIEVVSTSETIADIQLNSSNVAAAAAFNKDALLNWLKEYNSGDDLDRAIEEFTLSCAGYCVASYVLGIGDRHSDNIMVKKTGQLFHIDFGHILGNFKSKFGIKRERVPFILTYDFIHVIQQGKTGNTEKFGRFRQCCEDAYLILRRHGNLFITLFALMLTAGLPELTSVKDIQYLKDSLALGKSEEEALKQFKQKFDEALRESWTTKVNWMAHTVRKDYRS

kinases [9] = target: kinases (Homo sapiens, UniProt P42684); conditions: ABL2 (Arg) FRET-Z-Lyte SP; Test Conc(μM):ATP Conc(μM) 1:25
kinases [10] = target: kinases (Homo sapiens, UniProt P50750)
Sequence of kinases (Homo sapiens, UniProt P50750) (P50750 whole entry): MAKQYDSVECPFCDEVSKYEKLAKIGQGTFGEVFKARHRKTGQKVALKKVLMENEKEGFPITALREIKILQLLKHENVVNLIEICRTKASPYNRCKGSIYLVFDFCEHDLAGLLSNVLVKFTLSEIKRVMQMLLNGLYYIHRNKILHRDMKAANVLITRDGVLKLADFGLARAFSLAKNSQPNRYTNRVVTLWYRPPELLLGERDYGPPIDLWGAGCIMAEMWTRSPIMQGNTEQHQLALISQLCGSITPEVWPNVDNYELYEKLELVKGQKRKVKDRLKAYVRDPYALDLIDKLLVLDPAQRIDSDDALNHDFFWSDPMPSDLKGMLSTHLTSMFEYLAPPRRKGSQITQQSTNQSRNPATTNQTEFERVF

kinases [11] = target: kinases (Homo sapiens, UniProt P52333); conditions: JAK3 FRET-Z-Lyte SP; Test Conc(μM):ATP Conc(μM) 1:10
kinases [12] = target: kinases (Homo sapiens, UniProt Q00534); conditions: CDK6 Cyclin D1 FRET-Adapta SP; Test Conc(μM):ATP Conc(μM) 1:10
Sequence of kinases (Homo sapiens, UniProt Q00534) (Q00534 whole entry): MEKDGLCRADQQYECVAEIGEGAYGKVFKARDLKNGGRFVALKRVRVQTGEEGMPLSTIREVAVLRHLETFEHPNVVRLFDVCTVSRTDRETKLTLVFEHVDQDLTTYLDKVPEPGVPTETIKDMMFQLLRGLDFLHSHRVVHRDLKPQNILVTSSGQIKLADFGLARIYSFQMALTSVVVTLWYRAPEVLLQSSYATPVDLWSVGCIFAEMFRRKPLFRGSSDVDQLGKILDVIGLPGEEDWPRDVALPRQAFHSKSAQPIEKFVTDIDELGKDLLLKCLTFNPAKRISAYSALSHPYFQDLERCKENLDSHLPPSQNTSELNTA

kinases [13] = target: kinases (Homo sapiens, UniProt Q02763); conditions: TEK (Tie2) *Mn* FRET-Z-Lyte SP; Test Conc(μM):ATP Conc(μM) 1:10
kinases [14] = target: kinases (Homo sapiens, UniProt Q05397); conditions: PTK2 (FAK) FRET-Z-Lyte SP; Test Conc(μM):ATP Conc(μM) 1:50
Sequence of kinases (Homo sapiens, UniProt Q05397) (Q05397 whole entry): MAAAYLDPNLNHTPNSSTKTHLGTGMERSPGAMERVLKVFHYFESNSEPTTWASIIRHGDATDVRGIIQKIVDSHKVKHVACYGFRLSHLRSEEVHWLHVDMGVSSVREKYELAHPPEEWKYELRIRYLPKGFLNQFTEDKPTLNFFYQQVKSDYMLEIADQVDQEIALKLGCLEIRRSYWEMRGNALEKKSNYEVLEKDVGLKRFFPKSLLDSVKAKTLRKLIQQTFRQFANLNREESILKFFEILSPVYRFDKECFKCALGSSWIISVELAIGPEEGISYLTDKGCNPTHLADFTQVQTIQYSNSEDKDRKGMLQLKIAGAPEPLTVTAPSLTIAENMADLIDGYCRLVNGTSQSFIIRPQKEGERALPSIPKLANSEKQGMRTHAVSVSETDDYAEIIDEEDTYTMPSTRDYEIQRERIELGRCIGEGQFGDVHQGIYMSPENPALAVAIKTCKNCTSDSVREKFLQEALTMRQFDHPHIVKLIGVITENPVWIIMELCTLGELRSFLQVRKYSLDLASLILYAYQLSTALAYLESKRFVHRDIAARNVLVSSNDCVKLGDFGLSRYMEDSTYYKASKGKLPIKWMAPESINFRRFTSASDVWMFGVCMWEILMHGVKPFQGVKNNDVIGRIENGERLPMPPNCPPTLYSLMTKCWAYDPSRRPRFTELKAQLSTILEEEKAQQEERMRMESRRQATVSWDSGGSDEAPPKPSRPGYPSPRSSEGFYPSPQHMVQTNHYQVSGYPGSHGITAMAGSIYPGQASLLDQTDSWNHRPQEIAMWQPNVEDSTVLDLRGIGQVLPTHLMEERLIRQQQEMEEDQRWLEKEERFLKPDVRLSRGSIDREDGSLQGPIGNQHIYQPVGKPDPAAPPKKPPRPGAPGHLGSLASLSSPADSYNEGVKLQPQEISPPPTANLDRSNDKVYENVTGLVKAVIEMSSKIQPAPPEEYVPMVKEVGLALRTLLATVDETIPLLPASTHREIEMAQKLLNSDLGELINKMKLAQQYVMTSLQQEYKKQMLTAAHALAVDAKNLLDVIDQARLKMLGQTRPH

kinases [15] = target: kinases (Homo sapiens, UniProt Q05655); conditions: PRKCD (PKC delta) Z-Lyte SP; Test Conc(μM):ATP Conc(μM) 1:25
kinases [16] = target: kinases (Homo sapiens, UniProt Q13873); conditions: BMPR2 FRET-Lantha SP; Test Conc(μM) 1
Sequence of kinases (Homo sapiens, UniProt Q13873) (Q13873 27-1038): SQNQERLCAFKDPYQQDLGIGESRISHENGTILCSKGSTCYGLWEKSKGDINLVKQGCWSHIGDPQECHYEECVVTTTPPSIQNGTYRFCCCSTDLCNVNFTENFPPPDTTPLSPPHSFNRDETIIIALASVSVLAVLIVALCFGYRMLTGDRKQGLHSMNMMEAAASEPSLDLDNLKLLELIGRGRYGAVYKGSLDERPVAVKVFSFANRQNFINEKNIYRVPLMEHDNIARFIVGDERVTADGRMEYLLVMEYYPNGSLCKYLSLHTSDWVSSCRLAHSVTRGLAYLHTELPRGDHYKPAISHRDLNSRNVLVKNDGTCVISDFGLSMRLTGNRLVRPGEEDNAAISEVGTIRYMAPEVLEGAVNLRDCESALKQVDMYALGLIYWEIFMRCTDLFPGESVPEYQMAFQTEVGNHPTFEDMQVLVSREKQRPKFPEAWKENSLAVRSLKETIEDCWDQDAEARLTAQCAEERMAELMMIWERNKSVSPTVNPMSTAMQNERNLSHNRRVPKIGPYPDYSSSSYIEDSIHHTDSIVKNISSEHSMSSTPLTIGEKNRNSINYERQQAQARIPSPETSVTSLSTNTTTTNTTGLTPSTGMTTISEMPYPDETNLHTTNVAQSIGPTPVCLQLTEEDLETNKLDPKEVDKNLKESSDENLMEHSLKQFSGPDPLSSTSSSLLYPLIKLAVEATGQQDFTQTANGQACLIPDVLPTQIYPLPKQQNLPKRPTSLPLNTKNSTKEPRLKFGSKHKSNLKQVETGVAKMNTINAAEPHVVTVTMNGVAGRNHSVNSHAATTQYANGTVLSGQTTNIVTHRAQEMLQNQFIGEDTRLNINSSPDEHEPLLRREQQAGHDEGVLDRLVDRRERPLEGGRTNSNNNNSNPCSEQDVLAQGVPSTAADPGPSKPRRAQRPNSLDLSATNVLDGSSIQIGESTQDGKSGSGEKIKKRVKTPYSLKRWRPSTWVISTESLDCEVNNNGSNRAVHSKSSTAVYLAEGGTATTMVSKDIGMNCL

kinases [17] = target: kinases (Homo sapiens, UniProt Q13976); conditions: PRKG1 FRET-Z-Lyte SP; Test Conc(μM):ATP Conc(μM) 1:25
kinases [18] = target: kinases (Homo sapiens, UniProt Q16644); conditions: MAPKAPK3 FRET-Z-Lyte SP; Test Conc(μM):ATP Conc(μM) 1:200
kinases [19] = target: kinases (Homo sapiens, UniProt Q86UE8); conditions: TLK2 FRET-Lantha SP; Test Conc(μM) 1
kinases [20] = target: kinases (Homo sapiens, UniProt Q8IU85); conditions: CAMK1D FRET-Z-Lyte SP; Test Conc(μM):ATP Conc(μM) 1:25
kinases [21] = target: kinases (Homo sapiens, UniProt Q8IYT8); conditions: ULK2 FRET-Lantha SP; Test Conc(μM) 1
kinases [22] = target: kinases (Homo sapiens, UniProt Q8TCG2); conditions: PI4K2B *Mn* FRET-Adapta SP; Test Conc(μM):ATP Conc(μM) 1:10
kinases [23] = target: kinases (Homo sapiens, UniProt Q99759); conditions: MAP3K3 (MEKK3) FRET-Lantha SP; Test Conc(μM) 1
kinases [24] = target: kinases (Homo sapiens, UniProt Q9BUB5); conditions: MKNK1 (MNK1) *Mn* Z-Lyte SP; Test Conc(μM):ATP Conc(μM) 1:100
kinases [25] = target: kinases (Homo sapiens, UniProt Q9P0L2); conditions: MARK1 (MARK) FRET-Z-Lyte SP; Test Conc(μM):ATP Conc(μM) 1:5
kinases [26] = target: kinases (Homo sapiens, UniProt Q9UEW8); conditions: STK39 (STLK3) FRET-Lantha SP; Test Conc(μM) 1
kinases [27] = target: kinases (Homo sapiens, UniProt Q9UQM7); conditions: CAMK2A FRET-Z-Lyte SP; Test Conc(μM):ATP Conc(μM) 1:10
Sequence of kinases (Homo sapiens, UniProt Q9UQM7) (Q9UQM7 whole entry): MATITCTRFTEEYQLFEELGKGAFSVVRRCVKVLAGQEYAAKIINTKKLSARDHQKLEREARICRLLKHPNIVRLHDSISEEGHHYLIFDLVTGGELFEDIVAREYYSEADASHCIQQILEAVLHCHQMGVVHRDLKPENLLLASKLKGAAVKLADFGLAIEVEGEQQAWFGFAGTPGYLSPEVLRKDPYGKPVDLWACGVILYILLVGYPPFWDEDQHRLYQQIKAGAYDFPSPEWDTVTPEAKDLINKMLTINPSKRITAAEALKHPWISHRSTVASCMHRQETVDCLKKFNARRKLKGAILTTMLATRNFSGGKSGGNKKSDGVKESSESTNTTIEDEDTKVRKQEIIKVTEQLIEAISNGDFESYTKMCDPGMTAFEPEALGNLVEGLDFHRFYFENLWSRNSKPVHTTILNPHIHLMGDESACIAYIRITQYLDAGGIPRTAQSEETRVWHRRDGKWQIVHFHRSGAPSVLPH

kinases [28] = target: kinases (Homo sapiens, UniProt Q9Y572); conditions: RIPK3 FRET-Lantha SP; Test Conc(μM) 1
[29] = FYN A FRET-Lantha SP, Test Conc(μM) 1
[30] = FYN FRET-Z-Lyte SP, Test Conc(μM):ATP Conc(μM) 1:75
[31] = PIK3CB FRET-Adapta SP, Test Conc(μM):ATP Conc(μM) 1:150
[32] = PIK3CB/PIK3R2 FRET-Adapta SP, Test Conc(μM):ATP Conc(μM) 1:10
[33] = CDK9 (Inactive) FRET-Lantha SP, Test Conc(μM) 1
[34] = CDK9/cyclin K FRET-Lantha SP, Test Conc(μM) 1
[35] = CDK9/cyclin T1 FRET-Adapta SP, Test Conc(μM):ATP Conc(μM) 1:25

Cc1ccc(NC(=O)c2ccnc(N3CCOCC3)c2)cc1Nc1ccnc(N2CC(C)OC(C)C2)n1 (stereo not shown) [compound 3]
Mean Inhib (%) (kinases [1]): −2.1% | Mean Inhib (%) (kinases [2]): −1.7% | Mean Inhib (%) (kinases [3]; [29]): 4.8% | Mean Inhib (%) (kinases [3]; [30]): 5.1% | Mean Inhib (%) (kinases [4]): 10.0% | Mean Inhib (%) (kinases [5]): 2.4% | Mean Inhib (%) (kinases [6]): 4.8% | Mean Inhib (%) (kinases [7]): 5.2% | Mean Inhib (%) (kinases [8]; [31]): −5.2% | Mean Inhib (%) (kinases [8]; [32]): 8.0% | Mean Inhib (%) (kinases [9]): −1.3% | Mean Inhib (%) (kinases [10]; [33]): 6.2% | Mean Inhib (%) (kinases [10]; [34]): −1.9% | Mean Inhib (%) (kinases [10]; [35]): 17.2% | Mean Inhib (%) (kinases [11]): 7.2% | Mean Inhib (%) (kinases [12]): −1.8% | Mean Inhib (%) (kinases [13]): −4.4% | Mean Inhib (%) (kinases [14]): 13.1% | Mean Inhib (%) (kinases [15]): 15.1% | Mean Inhib (%) (kinases [16]): −4.1% | Mean Inhib (%) (kinases [17]): 5.7% | Mean Inhib (%) (kinases [18]): 1.7% | Mean Inhib (%) (kinases [19]): −2.9% | Mean Inhib (%) (kinases [20]): 0.0% | Mean Inhib (%) (kinases [21]): 2.6% | Mean Inhib (%) (kinases [22]): −15.8% | Mean Inhib (%) (kinases [23]): 5.2% | Mean Inhib (%) (kinases [24]): 5.3% | Mean Inhib (%) (kinases [25]): 16.9% | Mean Inhib (%) (kinases [26]): 6.0% | Mean Inhib (%) (kinases [27]): 1.0% | Mean Inhib (%) (kinases [28]): 20.9%

Cc1cc(Oc2ccnc(Nc3ccc(S(N)(=O)=O)cc3)c2)c(-c2ccccn2)nc1C [compound 65]
Mean Inhib (%) (kinases [1]): 1.6% | Mean Inhib (%) (kinases [2]): 3.4% | Mean Inhib (%) (kinases [3]; [29]): 27.5% | Mean Inhib (%) (kinases [3]; [30]): 43.1% | Mean Inhib (%) (kinases [4]): 6.3% | Mean Inhib (%) (kinases [5]): 7.6% | Mean Inhib (%) (kinases [6]): 5.0% | Mean Inhib (%) (kinases [7]): −1.3% | Mean Inhib (%) (kinases [8]; [31]): −2.3% | Mean Inhib (%) (kinases [8]; [32]): −4.7% | Mean Inhib (%) (kinases [9]): 82.6% | Mean Inhib (%) (kinases [10]; [33]): 6.9% | Mean Inhib (%) (kinases [10]; [34]): 2.6% | Mean Inhib (%) (kinases [10]; [35]): 6.2% | Mean Inhib (%) (kinases [11]): −7.8% | Mean Inhib (%) (kinases [12]): 6.7% | Mean Inhib (%) (kinases [13]): −7.9% | Mean Inhib (%) (kinases [14]): 5.7% | Mean Inhib (%) (kinases [15]): 1.0% | Mean Inhib (%) (kinases [16]): 2.7% | Mean Inhib (%) (kinases [17]): 0.3% | Mean Inhib (%) (kinases [18]): −1.3% | Mean Inhib (%) (kinases [19]): −4.8% | Mean Inhib (%) (kinases [20]): −7.6% | Mean Inhib (%) (kinases [21]): −1.0% | Mean Inhib (%) (kinases [22]): 1.8% | Mean Inhib (%) (kinases [23]): 14.8% | Mean Inhib (%) (kinases [24]): 1.5% | Mean Inhib (%) (kinases [25]): 5.7% | Mean Inhib (%) (kinases [26]): 5.1% | Mean Inhib (%) (kinases [27]): −3.3% | Mean Inhib (%) (kinases [28]): 76.6%
